Experimental findings from US20020049223A1, “Quinoline and naphthyridine carboxylic acid antibacterials” (priority 1999, published 2002) are described below.

What all share (assay): Assay B: in vitro antibacterial activity, broth microdilution MIC (NCCLS)
Holding throughout (type): cell-based

Assay [1] deals with Enterococcus faecalis PIU 1967. The settings on record: Table 2, Assay B, cation-adjusted Mueller Hinton broth, 35° C., 16 to 20 hr; code B = Enterococcus faecalis PIU 1967; unit assumed. The essentials: (§1)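 NCCLS broth microdilution with two-fold dilutions in cation-adjusted Mueller Hinton broth, inoculum about 5×10^5 CFU/mL, 35 °C in ambient air for 16-20 h; MIC read visually as lowest concentration completely inhibiting growth. S. pneumoniae: 3% lysed horse blood, 20-24 h; H. influenzae: 5 g/L yeast extract, 0.3 mmol/L hematin, 15 mg/L NAD, 20-24 h.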

The test system of the next assay is Escherichia coli JUHL. The settings on record: Table 2, Assay B, cation-adjusted Mueller Hinton broth, 35° C., 16 to 20 hr; code D = Escherichia coli JUHL; unit assumed. The essentials:
as §1

In assay [2] the test system is Haemophilus influenzae DILL AMP R. The following applies: Table 2, Assay B, Mueller Hinton broth with yeast extract, hematin and NAD, 20 to 24 hr; code E = Haemophilus influenzae DILL AMP R; unit assumed. The essentials:
as §1

For assay [3], the system named is Staphylococcus aureus ATCC 6538P. The following applies: Table 2, Assay B, cation-adjusted Mueller Hinton broth, 35° C., 16 to 20 hr; code A = Staphylococcus aureus ATCC 6538P; unit assumed. The essentials: as §1
The test system of assay [4] is Streptococcus pneumoniae ATCC 6303. The settings on record: Table 2, Assay B, Mueller Hinton broth with 3% lysed horse blood, 20 to 24 hr; code F = Streptococcus pneumoniae ATCC 6303; unit assumed. The essentials: as §1

Regarding `COc1c(-c2cc3c(s2)C(O)CNC3)ccc2c(=O)c(C(=O)O)cn(C3CC3)c12` (centres unmarked) [Example 202, 1-cyclopropyl-7-(7-hydroxy-4,5,6,7-tetrahydrothieno[3,2-c]pyridin-2-yl)-8-methoxy-4-oxo-1,4-dihydro-3-quinolinecarboxylic acid], the Antibacterial Activity (MIC's), B in assay [1] stood at 0.5 µg/mL. The Antibacterial Activity (MIC's), D in the assay on Escherichia coli JUHL is 0.125 µg/mL. This molecule also returned an Antibacterial Activity (MIC's), E in assay [2] of 0.015 µg/mL. In addition, the Antibacterial Activity (MIC's), A in assay [3] worked out at 0.125 µg/mL. In assay [4], this molecule registered an Antibacterial Activity (MIC's), F of 0.25 µg/mL.

Take `COc1c(-c2cc3c(s2)CCC(F)(F)C3O)ccc2c(=O)c(C(=O)O)cn(C3CC3)c12` (centres unmarked) [Example 204, 1-cyclopropyl-7-(5,5-difluoro-4-hydroxy-4,5,6,7-tetrahydro-1-benzothien-2-yl)-8-methoxy-4-oxo-1,4-dihydro-3-quinolinecarboxylic acid]: the Antibacterial Activity (MIC's), B in assay [1] was found to be 0.03 µg/mL. Further, in the assay with Escherichia coli JUHL, the Antibacterial Activity (MIC's), D turned out to be 0.125 µg/mL. Besides, the Antibacterial Activity (MIC's), E in assay [2] was no more than 0.004 µg/mL. For the same molecule, in assay [3], the Antibacterial Activity (MIC's), A is no more than 0.004 µg/mL. Further, the Antibacterial Activity (MIC's), F in assay [4] was determined as 0.125 µg/mL.

In assay [1], `COc1c(-c2cc3c(s2)CCC(F)(F)C3N)ccc2c(=O)c(C(=O)O)cn(C3CC3)c12` (centres unmarked) [Example 206, 7-(4-amino-5,5-difluoro-4,5,6,7-tetrahydro-1-benzothien-2-yl)-1-cyclopropyl-8-methoxy-4-oxo-1,4-dihydro-3-quinolinecarboxylic acid] registered an Antibacterial Activity (MIC's), B of 0.125 µg/mL. Moreover, the Antibacterial Activity (MIC's), D with Escherichia coli JUHL turned out to be 1 µg/mL. Moreover, the Antibacterial Activity (MIC's), E in assay [2] worked out at 0.5 µg/mL. Besides, in assay [3], the Antibacterial Activity (MIC's), A worked out at 0.03 µg/mL. This molecule had an Antibacterial Activity (MIC's), F in assay [4] of 0.5 µg/mL.

In assay [1], `COc1c(-c2cc3c(s2)CCC(C)(CO)C3=O)ccc2c(=O)c(C(=O)O)cn(C3CC3)c12` (centres unmarked) [Example 207, 1-cyclopropyl-7-(5-(hydroxymethyl)-5-methyl-4-oxo-4,5,6,7-tetrahydro-1-benzothien-2-yl)-8-methoxy-4-oxo-1,4-dihydro-3-quinolinecarboxylic acid] gave an Antibacterial Activity (MIC's), B of 0.125 µg/mL. Moreover, in the assay with Escherichia coli JUHL, the Antibacterial Activity (MIC's), D stood at 1 µg/mL. The molecule also gave an Antibacterial Activity (MIC's), E in assay [2] of 0.125 µg/mL. In assay [3], this molecule yielded an Antibacterial Activity (MIC's), A of 0.015 µg/mL. For the same molecule, the Antibacterial Activity (MIC's), F in assay [4] is 0.5 µg/mL.

Molecule `COc1c(-c2cc3c(s2)C(N)CNC3)ccc2c(=O)c(C(=O)O)cn(C3CC3)c12` (centres unmarked) [Example 208, 7-(7-amino-4,5,6,7-tetrahydrothieno[3,2-c]pyridin-2-yl)-1-cyclopropyl-8-methoxy-4-oxo-1,4-dihydro-3-quinolinecarboxylic acid] showed an Antibacterial Activity (MIC's), B in assay [1] of 0.5 µg/mL. In the assay on Escherichia coli JUHL, this molecule registered an Antibacterial Activity (MIC's), D of 0.25 µg/mL. The molecule further registered an Antibacterial Activity (MIC's), E in assay [2] of 0.06 µg/mL. Also, in assay [3], the Antibacterial Activity (MIC's), A stood at 0.125 µg/mL. For the same molecule, in assay [4], the Antibacterial Activity (MIC's), F was 0.25 µg/mL.

In assay [1], `COc1c(-c2cc3c(s2)CNCC3O)ccc2c(=O)c(C(=O)O)cn(C3CC3)c12` (centres unmarked) [Example 209, 1-cyclopropyl-7-(4-hydroxy-4,5,6,7-tetrahydrothieno[2,3-c]pyridin-2-yl)-8-methoxy-4-oxo-1,4-dihydro-3-quinolinecarboxylic acid] came in with an Antibacterial Activity (MIC's), B of 0.5 µg/mL. In the assay with Escherichia coli JUHL, the Antibacterial Activity (MIC's), D worked out at 0.25 µg/mL. In assay [2], the Antibacterial Activity (MIC's), E turned out to be 0.03 µg/mL. For the same molecule, in assay [3], the Antibacterial Activity (MIC's), A was 0.125 µg/mL. Besides, the Antibacterial Activity (MIC's), F in assay [4] turned out to be 0.25 µg/mL.

As to `CNC1CCCc2sc(-c3c(F)cc4c(=O)c(C(=O)O)cn(C5CC5)c4c3OC)cc21.Cl` (centres unmarked) [Example 210, 1-cyclopropyl-6-fluoro-8-methoxy-7-(4-(methylamino)-4,5,6,7-tetrahydro-1-benzothien-2-yl)-4-oxo-1,4-dihydro-3-quinolinecarboxylic acid hydrochloride], the Antibacterial Activity (MIC's), B in assay [1] stood at 0.125 µg/mL. In the assay with Escherichia coli JUHL, this molecule returned an Antibacterial Activity (MIC's), D of 0.25 µg/mL. Moreover, the Antibacterial Activity (MIC's), E in assay [2] amounted to 0.03 µg/mL. The same molecule gave an Antibacterial Activity (MIC's), A in assay [3] of 0.06 µg/mL. Besides, the Antibacterial Activity (MIC's), F in assay [4] turned out to be 0.06 µg/mL.

`COc1c(-c2cc3c(s2)CCCC3N2CC(N)C2)ccc2c(=O)c(C(=O)O)cn(C3CC3)c12.Cl.Cl` (centres unmarked) [Example 212, 7-[4-(3-amino-1-azetidinyl)-4,5,6,7-tetrahydro-1-benzothien-2-yl]-1-cyclopropyl-8-methoxy-4-oxo-1,4-dihydro-3-quinolinecarboxylic acid dihydrochloride]: the Antibacterial Activity (MIC's), B in assay [1] was found to be 0.5 µg/mL. Also, in the assay with Escherichia coli JUHL, the Antibacterial Activity (MIC's), D is 0.5 µg/mL. Also, in assay [2], the Antibacterial Activity (MIC's), E was found to be 0.25 µg/mL. The molecule further returned an Antibacterial Activity (MIC's), A in assay [3] of 0.125 µg/mL. In addition, in assay [4], the Antibacterial Activity (MIC's), F was determined as 0.125 µg/mL.

Regarding `CNC1CCCc2cc(-c3ccc4c(=O)c(C(=O)O)cn(C5CC5)c4c3OC)sc21.Cl` (centres unmarked) [Example 216, 1-cyclopropyl-8-methoxy-7-(7-(methylamino)-4,5,6,7-tetrahydro-1-benzothien-2-yl)-4-oxo-1,4-dihydro-3-quinolinecarboxylic acid hydrochloride], the Antibacterial Activity (MIC's), B in assay [1] came out at 0.25 µg/mL. For the same molecule, the Antibacterial Activity (MIC's), D in the assay on Escherichia coli JUHL worked out at 0.25 µg/mL. Also, the Antibacterial Activity (MIC's), E in assay [2] is 0.125 µg/mL. For the same molecule, in assay [3], the Antibacterial Activity (MIC's), A was found to be 0.06 µg/mL. This molecule yielded an Antibacterial Activity (MIC's), F in assay [4] of 0.125 µg/mL.

Consider `COc1c(-c2cc3c(s2)C(O)CCC3(C)C)ccc2c(=O)c(C(=O)O)cn(C3CC3)c12` (centres unmarked) [Example 218, 1-cyclopropyl-7-(7-hydroxy-4,4-dimethyl-4,5,6,7-tetrahydro-1-benzothien-2-yl)-8-methoxy-4-oxo-1,4-dihydro-3-quinolinecarboxylic acid], for which, in assay [1], the Antibacterial Activity (MIC's), B was found to be 0.25 µg/mL. In addition, in the assay with Escherichia coli JUHL, the Antibacterial Activity (MIC's), D stood at 2 µg/mL. The Antibacterial Activity (MIC's), E in assay [2] was 0.25 µg/mL. In assay [3], this molecule had an Antibacterial Activity (MIC's), A of 0.06 µg/mL. In addition, in assay [4], the Antibacterial Activity (MIC's), F turned out to be 0.5 µg/mL.

Molecule `COc1c(-c2cc3c(s2)C(N)CCC3(C)C)ccc2c(=O)c(C(=O)O)cn(C3CC3)c12.Cl` (centres unmarked) [Example 222, 7-(7-amino-4,4-dimethyl-4,5,6,7-tetrahydro-1-benzothien-2-yl)-1-cyclopropyl-8-methoxy-4-oxo-1,4-dihydro-3-quinolinecarboxylic acid hydrochloride] registered an Antibacterial Activity (MIC's), B in assay [1] of 0.5 µg/mL. In addition, in the assay on Escherichia coli JUHL, the Antibacterial Activity (MIC's), D is 1 µg/mL. Also, the Antibacterial Activity (MIC's), E in assay [2] was 0.5 µg/mL. Besides, the Antibacterial Activity (MIC's), A in assay [3] is 0.125 µg/mL. In assay [4], this molecule returned an Antibacterial Activity (MIC's), F of 0.25 µg/mL.

As for `COc1c(-c2cc3c(s2)CCCC3N)c(F)cc2c(=O)c(C(=O)O)cn(C3CC3)c12.Cl` (centres unmarked) [Example 224, 7-(4-amino-4,5,6,7-tetrahydro-1-benzothien-2-yl)-1-cyclopropyl-6-fluoro-8-methoxy-4-oxo-1,4-dihydro-3-quinolinecarboxylic acid hydrochloride], the Antibacterial Activity (MIC's), B in assay [1] was 0.03 µg/mL. In the assay with Escherichia coli JUHL, the Antibacterial Activity (MIC's), D is 0.125 µg/mL. The Antibacterial Activity (MIC's), E in assay [2] stood at 0.015 µg/mL. For the same molecule, in assay [3], the Antibacterial Activity (MIC's), A amounted to 0.015 µg/mL. The molecule also returned an Antibacterial Activity (MIC's), F in assay [4] of 0.03 µg/mL.

The molecule `COc1c(-c2cc3c(s2)CNCC3N)ccc2c(=O)c(C(=O)O)cn(C3CC3)c12` (centres unmarked) [Example 225, 7-(4-amino-4,5,6,7-tetrahydrothieno[2,3-c]pyridin-2-yl)-1-cyclopropyl-8-methoxy-4-oxo-1,4-dihydro-3-quinolinecarboxylic acid] gave an Antibacterial Activity (MIC's), B in assay [1] of 0.5 µg/mL. The molecule also displayed an Antibacterial Activity (MIC's), D with Escherichia coli JUHL of 1 µg/mL. In assay [2], this molecule came in with an Antibacterial Activity (MIC's), E of 0.125 µg/mL. In assay [3], the Antibacterial Activity (MIC's), A was 0.5 µg/mL. Moreover, the Antibacterial Activity (MIC's), F in assay [4] was 0.25 µg/mL.
